Source: patent US20030013638A1, “P27 prevents cellular migration” (priority 2001, published 2003)
pIC50: −log10 of the molar value.

Legend:
[1] = test system: wild type murine SMC; assay: SMC migration assay, modified Boyden chamber, bFGF-induced; type: cell-based, mouse
Procedure: (§1) Cell Culture: The murine aortic SMCs were obtained from the explant migration experiments described below, and were subcultured in DMEM containing 20% fetal bovine serum (FBS) at 37° C. in a humidified 95% air-5% CO2 atmosphere (Kobayashi et al., 1993). The growth medium was changed every other day until 80% confluence was reached. The cells used for experiments were from passages #3-6. Verification of SMC phenotype was determined by positive fluorescent staining for α-actin and negative staining for Factor VIII antigen. Cell viability was 95% or greater as determined by trypan blue exclusion at the conclusion of each experiment.
SMC migration assay: Migration was measured using a 48 well modified Boyden chamber housing a polycarbonate filter with 8 μm pores as described previously (Bornfeldt et al., 1994; Poon et al., 1996). Each membrane was coated with 0.1 mg/ml of collagen in 0.2 M acetic acid for 24 hours before each assay. For each assay, 50 ng/ml of bFGF in DMEM was loaded in quadruplicate wells in the bottom chamber. BSA (0.2% in DMEM without bFGF) was used as a negative control. […] An equal number of cells (2×10^5/ml) in 50 μl was loaded to the top chamber of each well. After 6 hours, non-migrating cells were scraped from the upper surface of the filter. Cells on the lower surface were fixed with methanol and stained with Giemsa stain (Fisher Scientific, N.Y.) . The number of SMC on the lower surface of the filter was determined by counting four high power (X200) fields of constant area per well. Values are expressed as the percentage of cells migrating in response to bFGF after subtraction of the negative control (DMEM+BSA). Experiments were performed at least twice using quadruplicate wells.

[2] = test system: p27 (−/−) SMC; assay: as above; type: cell-based, mouse
Procedure: as §1
SMC migration assay: Migration was measured using a 48 well modified Boyden chamber housing a polycarbonate filter with 8 μm pores as described previously (Bornfeldt et al., 1994; Poon et al., 1996). Each membrane was coated with 0.1 mg/ml of collagen in 0.2 M acetic acid for 24 hours before each assay. For each assay, 50 ng/ml of bFGF in DMEM was loaded in quadruplicate wells in the bottom chamber. BSA (0.2% in DMEM without bFGF) was used as a negative control. Rapamycin, FK506 or C3 exoenzyme was directly added to the growth medium for either 48 hours (rapamycin and FK506) or 16 hours (C3 exoenzyme) before the cells were trypsinized, and counted with a hemacytometer. An equal number of cells (2×10^5/ml) in 50 μl was loaded to the top chamber of each well. After 6 hours, non-migrating cells were scraped from the upper surface of the filter. Cells on the lower surface were fixed with methanol and stained with Giemsa stain (Fisher Scientific, N.Y.) . The number of SMC on the lower surface of the filter was determined by counting four high power (X200) fields of constant area per well. Values are expressed as the percentage of cells migrating in response to bFGF after subtraction of the negative control (DMEM+BSA). Experiments were performed at least twice using quadruplicate wells.

[3] = test system: SMC obtained from wild type and p27 (−/−) animals; assay: Cell viability (trypan blue exclusion) and morphology of SMC; type: cell-based, mouse
Procedure: as §1

[4] = test system: aortic SMC of wild type C57BL/6 mice; assay: Aortic SMC explant migration after in vivo treatment; parameters: species or system mouse
Procedure: (§2) Aortic SMC explant migration: Wild type C57BL/6 mice were purchased from Jackson Laboratory (Bar Harbor, Me.). The p27 (+/−) and p27 (−/−) knockout mice were kindly provided by Dr. Andrew Koff of Memorial Sloan-Kettering Cancer Institute (Kiyokawa et al., 1996). […] The control group was treated with vehicle alone (0.2% sodium CMC, polysorbate 0.25%; Sigma, St. Louis, Mo.). At the conclusion of the treatment protocol, the mice were euthanized with 100 mg/kg of pentobarbital, the aortas excised and the adventitia and surrounding connective tissue were removed. The aortas were then opened by a longitudinal cut and the intima, as well as a thin portion of the subjacent media, were removed. The media were divided into 2 mm×2 mm pieces and placed in 6 well tissue culture plates (35 mm, 22.6 mm diameter, Costar, Cambridge, Mass.) containing DMEM with 20% FBS. The culture media was changed every other day. The migration of SMC out of the explant was observed under the microscope daily following explant. The total number of cells explanted was determined for each animal's explants on a daily basis. The results in FIG. 5 are presented as the mean percentage (±SD) of inhibition of migration (by rapamycin or taxol) as compared to control (untreated) for at least 4 animals from each group. The SMC phenotype was confirmed as previously described (Spector et al., 1997).

[5] = test system: aortic SMC of p27 (+/−) mice; assay: as above; parameters: species or system mouse; conditions: 4 mg/kg/day for 5 days IP, p<0.05
Procedure: Aortic SMC explant migration: Wild type C57BL/6 mice were purchased from Jackson Laboratory (Bar Harbor, Me.). The p27 (+/−) and p27 (−/−) knockout mice were kindly provided by Dr. Andrew Koff of Memorial Sloan-Kettering Cancer Institute (Kiyokawa et al., 1996). The mice received one of three different treatment protocols (9 mg/kg/day for 7 days, 4 mg/kg/day for 5 days, or 2 mg/kg/day for 2 days) of rapamycin via intraperitoneal (IP) injection. The control group was treated with vehicle alone (0.2% sodium CMC, polysorbate 0.25%; Sigma, St. Louis, Mo.). At the conclusion of the treatment protocol, the mice were euthanized with 100 mg/kg of pentobarbital, the aortas excised and the adventitia and surrounding connective tissue were removed. The aortas were then opened by a longitudinal cut and the intima, as well as a thin portion of the subjacent media, were removed. The media were divided into 2 mm×2 mm pieces and placed in 6 well tissue culture plates (35 mm, 22.6 mm diameter, Costar, Cambridge, Mass.) containing DMEM with 20% FBS. The culture media was changed every other day. The migration of SMC out of the explant was observed under the microscope daily following explant. The total number of cells explanted was determined for each animal's explants on a daily basis. […]

[6] = test system: aortic SMC of p27 (−/−) knockout mice; assay: as above; parameters: species or system mouse; conditions: 20 mg/kg/day for 7 days
Procedure: as §2

SMILES: C=CC[C@@H]1/C=C(\C)C[C@H](C)C[C@H](OC)[C@H]2O[C@@](O)(C(=O)C(=O)N3CCCC[C@H]3C(=O)O[C@H](/C(C)=C/[C@@H]3CC[C@@H](O)[C@H](OC)C3)[C@H](C)[C@@H](O)CC1=O)[C@H](C)C[C@@H]2OC [FK506]
- effect on murine SMC migration (FIG. 1A) ([1]; wild type SMC, 48 hours): no effect
- effect on murine SMC migration (FIG. 1B) ([2]; p27 (−/−) SMC, 48 hours): no effect

SMILES: CO[C@H]1C[C@@H]2CC[C@@H](C)[C@@](O)(O2)C(=O)C(=O)N2CCCC[C@H]2C(=O)O[C@H]([C@H](C)C[C@@H]2CC[C@@H](O)[C@H](OC)C2)CC(=O)[C@H](C)/C=C(\C)[C@@H](O)[C@@H](OC)C(=O)[C@H](C)C[C@H](C)/C=C/C=C/C=C/1C [rapamycin]
- pIC50 ([1]; Mus musculus, wild type murine SMC, treatment for 48 hours, read-out: IC50, inhibition of bFGF-induced SMC migration): ~8.70
- effect on SMC migration of addition immediately prior to incubation ([1]; added to upper or lower chamber immediately prior to incubation, genotype not stated): no effect
- cell viability, treated vs untreated [3]: no differences
- inhibition of explant migration as compared to untreated animals ([4]; wild type, 4 mg/kg/day for 5 days IP, p<0.05): ~85%
- inhibition of explant migration as compared to untreated animals [5]: ~85%
- inhibition at 0.1 µM ([2]; Mus musculus, p27 (−/−) SMC, 100 nM, 48 hours): ~35%
- pIC50 ([2]; Mus musculus, p27 (−/−) cells, treatment for 48 hours, read-out: IC50, inhibition of bFGF-induced SMC migration): ~6.70
- inhibition of migration ([2]; p27 (−/−) SMC, 1 nM to 10 nM, 48 hours): no significant inhibition
- increased IC50 in p27 (−/−) cells as compared to wild type SMC ([2]; p27 (−/−) vs wild type SMC): 100 fold

SMILES: CC(=O)O[C@H]1C(=O)[C@@]2(C)[C@H]([C@H](OC(=O)c3ccccc3)[C@]3(O)C[C@H](OC(=O)[C@H](O)[C@@H](NC(=O)c4ccccc4)c4ccccc4)C(C)=C1C3(C)C)[C@]1(OC(C)=O)CO[C@@H]1C[C@@H]2O [taxol, paclitaxel]
- inhibition of explant migration (FIG. 3C) ([4]; p27 (+/+), 20 mg/kg/day for 7 days): inhibited migration
- difference in inhibition of explant migration between wild type and p27 (−/−) animals [6]: No differences
- inhibition of explant migration (FIG. 3C) ([6]; p27 (−/−)): inhibited migration
